Measured values taken from patent publication US4605744A, “Imidazole derivatives” (Hoffmann-La Roche Inc., priority 1985, dated 1986).
Counter-ions that a name gives are not always drawn.

Tests used:
Assay in all cases: In vitro antibacterial activity (MIC)
Format in all cases: cell-based
K. pneumoniae 8357 = conditions: Klebsiella pneumoniae, 8357, K. pneumoniae 8357; read-out: MIC
Procedure, shortened: (§1)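 Overnight cultures, diluted 10^-2, were added at 1.5 μl per well to twofold drug series (128–0.008 μg/ml) in Mueller-Hinton broth.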

S. marcescens S3 = conditions: Serratia marcescens; S. marcescens S3; read-out: MIC
Procedure, shortened: as §1

S. marcescens S2 = conditions: Serratia marcescens; S. marcescens S2; read-out: MIC
Procedure, shortened: as §1

S. marcescens 5805 = conditions: Serratia marcescens, 5805, S. marcescens 5805; read-out: MIC
Procedure, shortened: as §1

E. coli R-563 = conditions: Escherichia coli, R563, E. coli R-563; read-out: MIC
Procedure, shortened: as §1

P. aeruginosa 503-56 = conditions: Pseudomonas aeruginosa, 50356, P. aeruginosa 503-56; read-out: MIC
Procedure, shortened: as §1

S. schottmuelleri = conditions: read-out: MIC
Procedure, shortened: as §1

E. cloacae P99 = conditions: Enterobacter cloacae, P99, E. cloacae P99
Procedure, shortened: as §1

K. pneumoniae 4964 = conditions: Klebsiella pneumoniae, 4964, K. pneumoniae 4964; read-out: MIC
Procedure, shortened: as §1

K. pneumoniae A = conditions: Klebsiella pneumoniae, K. pneumoniae A; read-out: MIC
Procedure, shortened: as §1

P. aeruginosa 8710 = conditions: Pseudomonas aeruginosa; P. aeruginosa 8710; read-out: MIC
Procedure, shortened: as §1

E. cloacae 5699 = conditions: Enterobacter cloacae, 5699, E. cloacae 5699; read-out: MIC
Procedure, shortened: as §1

P. aeruginosa 6148B = conditions: Pseudomonas aeruginosa, read-out: MIC
Procedure, shortened: as §1

S. pneumoniae 6301 = conditions: Streptococcus pneumoniae, 6301, S. pneumoniae 6301; read-out: MIC
Procedure, shortened: as §1

E. cloacae 9570A = conditions: Enterobacter cloacae, read-out: MIC
Procedure, shortened: as §1

E. coli 5152 = conditions: Escherichia coli, 5152, E. coli 5152; read-out: MIC
Procedure, shortened: as §1

E. aerogenes 503-478 = conditions: Klebsiella aerogenes, 503478, E. aerogenes 503-478; read-out: MIC
Procedure, shortened: as §1

K. pneumoniae 503-964 = conditions: Klebsiella pneumoniae, 503964; K. pneumoniae 503-964; read-out: MIC
Procedure, shortened: as §1

S. marcescens S4 = conditions: Serratia marcescens, S4, S. marcescens S4; read-out: MIC
Procedure, shortened: as §1

S. marcescens SM = conditions: Serratia marcescens, read-out: MIC
Procedure, shortened: as §1

E. aerogenes 83 = conditions: Klebsiella aerogenes, 83, E. aerogenes 83; read-out: MIC
Procedure, shortened: as §1

S. pyogenes 4 = conditions: Streptococcus pyogenes, 4, S. pyogenes 4; read-out: MIC
Procedure, shortened: as §1

E. coli 503-455 = conditions: Escherichia coli, 503455, E. coli 503-455; read-out: MIC
Procedure, shortened: as §1

E. cloacae 6951 = conditions: Enterobacter cloacae, 6951, E. cloacae 6951; read-out: MIC
Procedure, shortened: as §1

S. pneumoniae SC = conditions: Streptococcus pneumoniae, read-out: MIC
Procedure, shortened: as §1

E. coli 4 = conditions: Escherichia coli, 4, E. coli 4; read-out: MIC
Procedure, shortened: as §1

C. freundii 8ASM = conditions: Citrobacter freundii, 8ASM, C. freundii 8ASM; read-out: MIC
Procedure, shortened: as §1

K. pneumoniae HE7 = conditions: Klebsiella pneumoniae; K. pneumoniae HE7; read-out: MIC
Procedure, shortened: as §1

E. aerogenes 8 = conditions: Klebsiella aerogenes; E. aerogenes 8; read-out: MIC
Procedure, shortened: as §1

P. rettgeri ATCC 9250 = conditions: Providencia rettgeri, ATCC9250, P. rettgeri ATCC 9250; read-out: MIC
Procedure, shortened: as §1

K. pneumoniae 35 = conditions: Klebsiella pneumoniae; K. pneumoniae 35; read-out: MIC
Procedure, shortened: as §1

P. mirabilis 190 = conditions: Proteus mirabilis, 190, P. mirabilis 190; read-out: MIC
Procedure, shortened: as §1

E. coli 48 = conditions: Escherichia coli, 48, E. coli 48; read-out: MIC
Procedure, shortened: as §1

P. aeruginosa 503-820 = conditions: Pseudomonas aeruginosa, 503820; P. aeruginosa 503-820; read-out: MIC
Procedure, shortened: as §1

P. aeruginosa 8780 = conditions: Pseudomonas aeruginosa; P. aeruginosa 8780; read-out: MIC
Procedure, shortened: as §1

S. aureus Giorgio = conditions: Staphylococcus aureus, S. aureus Giorgio; read-out: MIC
Procedure, shortened: as §1

S. typhi P58A = conditions: Salmonella enterica, TYPHI
Procedure, shortened: as §1

S. pneumoniae 6302 = conditions: Streptococcus pneumoniae, 6302, S. pneumoniae 6302; read-out: MIC
Procedure, shortened: as §1

K. pneumoniae 5096 = conditions: Klebsiella pneumoniae; K. pneumoniae 5096; read-out: MIC
Procedure, shortened: as §1

P. vulgaris ATCC 6380 = conditions: Proteus vulgaris, ATCC6380, P. vulgaris ATCC 6380; read-out: MIC
Procedure, shortened: as §1

E. cloacae 214 = conditions: Enterobacter cloacae, 214, E. cloacae 214; read-out: MIC
Procedure, shortened: as §1

E. cloacae 9295 = conditions: Enterobacter cloacae, 9295, E. cloacae 9295; read-out: MIC
Procedure, shortened: as §1

P. mirabilis 2 = conditions: Proteus mirabilis, 2, P. mirabilis 2; read-out: MIC
Procedure, shortened: as §1

K. pneumoniae 503-994 = conditions: Klebsiella pneumoniae, 503994, K. pneumoniae 503-994; read-out: MIC
Procedure, shortened: as §1

E. coli 387-1 = conditions: Escherichia coli, 3871, E. coli 387-1; read-out: MIC
Procedure, shortened: as §1

Q: Which results are given for CC1(C)S[C@@H]2[C@H](N=CN3CCC(CC4=NCCN4)CC3)C(=O)N2[C@H]1C(=O)O [M, [2S-(2alpha,5alpha,6beta)]-6-[[[4-[(4,5-dihydro-1H-imidazol-2-yl)methyl]-1-piperidinyl]methylene]amino]-3,3-dimethyl-7-oxo-4-thia-1-azabicyclo[3.2.0]heptane-2-carboxylic acid hydrochloride]?
A: MIC (K. pneumoniae 8357): 1 µg/mL; MIC (S. marcescens S3): 0.125 µg/mL; MIC (S. marcescens S2): 0.25 µg/mL; MIC (S. marcescens 5805): 1 µg/mL; MIC (E. coli R-563): 0.062 µg/mL; MIC (P. aeruginosa 503-56): 32 µg/mL; MIC (S. schottmuelleri): 0.062 µg/mL; MIC (E. cloacae P99): 0.062 µg/mL; MIC (K. pneumoniae 4964): 2 µg/mL; MIC (K. pneumoniae A): 0.062 µg/mL; MIC (P. aeruginosa 8710): 64 µg/mL; MIC (E. cloacae 5699): 0.25 µg/mL; MIC (P. aeruginosa 6148B): 32 µg/mL; MIC (S. pneumoniae 6301): 1 µg/mL; MIC (E. cloacae 9570A): 0.25 µg/mL; MIC (E. coli 5152): 16 µg/mL; MIC (E. aerogenes 503-478): 4 µg/mL; MIC (K. pneumoniae 503-964): 0.25 µg/mL; MIC (S. marcescens S4): 1 µg/mL; MIC (S. marcescens SM): 0.125 µg/mL; MIC (E. aerogenes 83): 2 µg/mL; MIC (S. pyogenes 4): 1 µg/mL; MIC (E. coli 503-455): 2 µg/mL; MIC (E. cloacae 6951): 32 µg/mL; MIC (S. pneumoniae SC): 1 µg/mL; MIC (E. coli 4): 0.062 µg/mL; MIC (C. freundii 8ASM): 0.062 µg/mL; MIC (K. pneumoniae HE7): > 128 µg/mL; MIC (E. aerogenes 8): 32 µg/mL; MIC (P. rettgeri ATCC 9250): 0.5 µg/mL; MIC (K. pneumoniae 35): 1 µg/mL; MIC (P. mirabilis 190): 0.5 µg/mL; MIC (E. coli 48): 0.125 µg/mL; MIC (P. aeruginosa 503-820): 64 µg/mL; MIC (P. aeruginosa 8780): 128 µg/mL; MIC (S. aureus Giorgio): 2 µg/mL; MIC (S. typhi P58A): 0.062 µg/mL; MIC (S. pneumoniae 6302): 1 µg/mL; MIC (K. pneumoniae 5096): > 128 µg/mL; MIC (P. vulgaris ATCC 6380): 0.25 µg/mL; MIC (E. cloacae 214): 0.25 µg/mL; MIC (E. cloacae 9295): 0.5 µg/mL; MIC (P. mirabilis 2): 0.5 µg/mL; MIC (K. pneumoniae 503-994): 0.25 µg/mL; MIC (E. coli 387-1): 0.062 µg/mL
